The record followed here is patent US8853258B2, “C-linked hydroxamic acid derivatives useful as antibacterial agents” (Pfizer Inc., priority 2009, dated 2014).

The subject of series [1] is Acinetobacter baumanii/haemolyticus: Multidrug-resistant clinical isolate (AB-3167). Briefly: MIC determination (CLSI), AB-3167. The format is cell-based. The conditions noted are these: Acinetobacter baumannii; Table 3; read-out: AB-3167 MIC. The method, boiled down:
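Multidrug-resistant clinical isolate AB-3167 (A. baumannii/haemolyticus) tested for minimum inhibitory concentration following CLSI dilution susceptibility standards M7-A7 and M100-S18.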

The subject of series [2] is Pseudomonas aeruginosa UI-18: Wild-type (PA-7). Briefly: MIC determination (CLSI), PA-7. It counts as cell-based. Conditions: Pseudomonas aeruginosa; Table 3; read-out: PA-7 MIC. The method, boiled down:
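MIC by dilution method per CLSI M7-A7 and M100-S18 guidelines. Strain: wild-type Pseudomonas aeruginosa UI-18.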

Series [3] concerns Klebsiella pneumoniae: Ciprofloxacin-resistant isolate, ESBL, clinical isolate (KP-3700). Description: MIC determination (CLSI), KP-3700. The format is cell-based. The method, boiled down:
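MIC measured by broth dilution according to CLSI M7-A7 and M100-S18 standards. Test organism was a ciprofloxacin-resistant, ESBL-expressing clinical isolate.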

In series [4] the target is Pseudomonas aeruginosa LpxC enzyme (Pseudomonas aeruginosa (strain ATCC 15692 / DSM 22644 / CIP 104116 / JCM 14847 / LMG 12228 / 1C / PRS 101 / PAO1), UniProt P47205). Description: IC50 Assay, LpxC Enzyme from P. aeruginosa (PA LpxC Enzyme IC50). The format is biochemical. Conditions: Table 3; read-out: PA LpxC enzyeme IC^50. The method, boiled down: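 Reaction run 1 h then stopped with 1N HCl. Conversion measured by RapidFire high-throughput mass spectrometry. IC50 derived from percent conversion relative to a no-enzyme control.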

Series [5] deals with Escherichia coli EC-1: VOGEL, mouse virulent. Briefly: MIC determination (CLSI), EC-1. It counts as cell-based. Conditions: Escherichia coli, read-out: EC-1 MIC. The essentials: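 E. coli Vogel, a mouse-virulent strain (EC-1), was tested. MICs were set by dilution susceptibility testing per CLSI standards M7-A7/M100-S18.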

≈ marks a conversion by molar mass, not a printed value.

As a reminder, the MIC is the lowest concentration that inhibits growth of the organism. For `CC(CCc1ccc(OCc2nc(-c3cccnc3)no2)cc1)(C(=O)NO)S(C)(=O)=O` (stereo not drawn) [Example 305, N-hydroxy-2-methyl-2-(methylsulfonyl)-4-{4-[(3-pyridin-3-yl-1,2,4-oxadiazol-5-yl)methoxy]phenyl}butanamide], the MIC is at least 64 µg/mL in series [1], 32 µg/mL (≈ 71.7 µM) in series [2] and 32 µg/mL (≈ 71.7 µM) in series [5]. Further, in series [3], the “KP-3700 MIC” value is reported as “≧64 mg/L”. Also, the IC50 in series [4] was determined as 7.53 nM.
Turning to `CCc1ccccc1COc1ccc(CCC(C)(C(=O)NO)S(C)(=O)=O)cc1` (stereo not drawn) [Example 306, 4-{4-[(2-ethylbenzyl)oxy]phenyl}-N-hydroxy-2-methyl-2-(methylsulfonyl)butanamide], the minimal inhibitory concentration (MIC) stood at 16 µg/mL (≈ 39.5 µM) in series [1], 16 µg/mL (≈ 39.5 µM) in series [2] and 8 µg/mL (≈ 19.7 µM) in series [5]. The “KP-3700 MIC” value in series [3] was 32 µg/mL. Moreover, the IC50 in series [4] turned out to be 0.813 nM.
Regarding `CC(CCc1ccc(OCc2ccc(Cl)cc2F)cc1)(C(=O)NO)S(C)(=O)=O` (stereo not drawn) [Example 307, 4-{4-[(4-chloro-2-fluorobenzyl)oxy]phenyl}-N-hydroxy-2-methyl-2-(methylsulfonyl)butanamide], the results for the MIC in series [1], in series [2] and in series [5] were 16 µg/mL (≈ 37.2 µM), 4 µg/mL (≈ 9.3 µM) and 2 µg/mL (≈ 4.65 µM), respectively. The “KP-3700 MIC” value in series [3] came to 8 µg/mL. The IC50 in series [4] is 0.393 nM.
Turning to `CC(CCc1ccc(OCc2nc(-c3ccccc3)no2)cc1)(C(=O)NO)S(C)(=O)=O` (stereo not drawn) [Example 308, N-hydroxy-2-methyl-2-(methylsulfonyl)-4-{4-[(3-phenyl-1,2,4-oxadiazol-5-yl)methoxy]phenyl}butanamide], the minimal inhibitory concentration (MIC) was at least 64 µg/mL in series [1], 32 µg/mL (≈ 71.8 µM) in series [2] and 4 µg/mL (≈ 8.98 µM) in series [5]. Also, the “KP-3700 MIC” value in series [3] amounted to 16 µg/mL. Moreover, the IC50 in series [4] was 2.56 nM.
As for `CC(CCc1ccc(OCc2ccc(S(C)(=O)=O)cc2)cc1)(C(=O)NO)S(C)(=O)=O` (stereo not drawn) [Example 309, N-hydroxy-2-methyl-2-(methylsulfonyl)-4-(4-{[4-(methylsulfonyl)benzyl]oxy}phenyl)butanamide], the MIC was at least 64 µg/mL in series [1], 8 µg/mL (≈ 17.6 µM) in series [2] and 8 µg/mL (≈ 17.6 µM) in series [5]. In series [3], the “KP-3700 MIC” value was determined as 16 µg/mL. In series [4], the IC50 is 1.21 nM.
`Cc1cccc(COc2ccc(CCC(C)(C(=O)NO)S(C)(=O)=O)cc2)c1` (stereo not drawn) [Example 310, N-hydroxy-2-methyl-4-{4-[(3-methylbenzyl)oxy]phenyl}-2-(methylsulfonyl)butanamide]: the MIC in series [1] stood at 16 µg/mL (≈ 40.9 µM); in series [2] it was 4 µg/mL (≈ 10.2 µM); in series [5], 2 µg/mL (≈ 5.11 µM). For the same compound, the “KP-3700 MIC” value in series [3] was found to be 8 µg/mL. Moreover, the IC50 in series [4] is 0.883 nM.
